The supplement of paper PMC7840683

Test system: HepaRG
Assay: LDH release cytotoxicity, % of total lysis control; higher = more cytotoxic
Details: 48 h
Method in brief: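 Single-lot HepaRG cells on collagen I-coated 96-well plates were exposed for 48 h in duplicate, in serum-free induction medium with 0.5% DMSO, to eight-point half-log series (test chemicals top 100 µM). Total lysis wells received 0.1% Triton X, and LDH leakage into 50 µL spent medium was read as resorufin fluorescence (CytoTox-ONE, Tecan Safire). Percent cytotoxicity was normalized to on-plate vehicle and total lysis controls and averaged over the duplicates.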

Clc1ccccc1C(c1ccccc1)(c1ccccc1)n1ccnc1 [Clotrimazole]
Details | LDH release cytotoxicity [%]
0.03162 µM | -0.964
0.1 µM | -0.87
0.3162278 µM | -1.49
1 µM | -1.36
3.16228 µM | -0.966
10 µM | 4.28
31.6228 µM | 11.6
100 µM | 82.1

COc1cc2c(c(OC)c1OC)-c1ccc(OC)c(=O)cc1C(NC(C)=O)CC2 (configuration not stated) [Colchicine]
Details | LDH release cytotoxicity [%]
0.031623 µM | 2.9
0.1 µM | 7.47
0.316228 µM | 10.8
1 µM | 10.1
3.16228 µM | 11.5
10 µM | 10.1
31.6228 µM | 7.72
100 µM | 5.064

CC12CCC(=O)C=C1CCC1C2C(O)CC2(C)C(C(=O)CO)CCC12 (configuration not stated) [Corticosterone]
Details | LDH release cytotoxicity [%]
0.03162 µM | -1.65
0.1 µM | -0.683
0.3162278 µM | 0.128
1 µM | -1.19
3.16228 µM | -0.76
10 µM | -0.609
31.6228 µM | -0.274
100 µM | 1.02

CN1C(=O)CCC1c1cccnc1 (configuration not stated) [Cotinine]
Details | LDH release cytotoxicity [%]
0.03162 µM | -0.994
0.1 µM | -2.34
0.3162278 µM | -0.492
1 µM | -1.31
3.16228 µM | -0.499
10 µM | -0.978
31.6228 µM | -0.74
100 µM | 0.597

CCOP(=S)(OCC)Oc1ccc2c(C)c(Cl)c(=O)oc2c1 [Coumaphos]
Details | LDH release cytotoxicity [%]
0.031623 µM | -0.785
0.1 µM | -3.39
0.316228 µM | -2.36
1 µM | -2.83
3.16228 µM | -3.28
10 µM | -3.57
31.6228 µM | -2.86
100 µM | 5.7

O=c1ccc2ccccc2o1 [Coumarin]
Details | LDH release cytotoxicity [%]
0.03162 µM | -1.09
0.1 µM | -0.766
0.3162278 µM | -0.788
1 µM | -1.992
3.16228 µM | -1.12
10 µM | -2.38
31.6228 µM | -0.666
100 µM | 6.17

CC(C)(OO)c1ccccc1 [Cumene hydroperoxide]
Details | LDH release cytotoxicity [%]
0.03162 µM | -1.39
0.1 µM | 0.0774
0.3162278 µM | -0.106
1 µM | -0.2
3.16228 µM | 0.797
10 µM | 0.939
31.6228 µM | 0.476
100 µM | 1.68

N#CN [Cyanamide]
Details | LDH release cytotoxicity [%]
0.03162 µM | -0.717
0.1 µM | -2.37
0.3162278 µM | -1.74
1 µM | -1.73
3.16228 µM | -2.07
10 µM | -1.59
31.6228 µM | -1.21
100 µM | -0.0755

CCNc1nc(Cl)nc(NC(C)(C)C#N)n1 [Cyanazine]
Details | LDH release cytotoxicity [%]
0.03162 µM | -0.628
0.1 µM | -0.139
0.3162278 µM | -0.711
1 µM | -1.27
3.16228 µM | -0.482
10 µM | -0.431
31.6228 µM | -0.343
100 µM | 0.714

Oc1nc(O)nc(O)n1 [Cyanuric acid]
Details | LDH release cytotoxicity [%]
0.0314647 µM | -2.84
0.0995 µM | -3.15
0.3146466 µM | -2.69
0.995 µM | -2.08
3.14647 µM | -2.52
9.95 µM | -1.85
31.4647 µM | -1.63
99.5 µM | -0.7

Cc1ccc(-c2c(Cl)nc(C#N)n2S(=O)(=O)N(C)C)cc1 [Cyazofamid]
Details | LDH release cytotoxicity [%]
0.03162 µM | 1.31
0.1 µM | -1.5
0.3162278 µM | -1.4
1 µM | -0.689
3.16228 µM | -1.5
10 µM | 43.2
31.6228 µM | 52.8
100 µM | 53.7

O=C(O)C1(C(=O)Nc2ccc(Cl)cc2Cl)CC1 [Cyclanilide]
Details | LDH release cytotoxicity [%]
0.03162 µM | 0.835
0.1 µM | -0.444
0.3162278 µM | -0.309
1 µM | -1.03
3.16228 µM | -0.632
10 µM | 0.531
31.6228 µM | 2.66
100 µM | 4.54

CCSC(=O)N(CC)C1CCCCC1 [Cycloate]
Details | LDH release cytotoxicity [%]
0.03162 µM | -0.645
0.1 µM | -0.297
0.3162278 µM | -0.471
1 µM | -0.678
3.16228 µM | 0.089
10 µM | 0.922
31.6228 µM | 0.446
100 µM | 1.91

OC1CCCCC1 [Cyclohexanol]
Details | LDH release cytotoxicity [%]
0.03162 µM | -1.14
0.1 µM | -1.56
0.3162278 µM | -2.24
1 µM | -1.92
3.16228 µM | -1.56
10 µM | -0.208
31.6228 µM | -0.773
100 µM | -0.073

O=C1CCCCC1 [Cyclohexanone]
Details | LDH release cytotoxicity [%]
0.03162 µM | -0.709
0.1 µM | -1.76
0.3162278 µM | -1.81
1 µM | -1.07
3.16228 µM | -1.46
10 µM | -1.17
31.6228 µM | -0.292
100 µM | 0.737

CC1CC(C)C(=O)C(C(O)CC2CC(=O)NC(=O)C2)C1 (configuration not stated) [Cycloheximide]
Details | LDH release cytotoxicity [%]
0.03162 µM | -0.96
0.1 µM | -0.691
0.3162278 µM | -1.8
1 µM | -1.99
3.16228 µM | -1.19
10 µM | 3.47
31.6228 µM | 24
100 µM | 61.9

NC1CCCCC1 [Cyclohexylamine]
Details | LDH release cytotoxicity [%]
0.03162 µM | -1.45
0.1 µM | -1.58
0.3162278 µM | -1.84
1 µM | -2.2
3.16228 µM | -2.32
10 µM | -1.74
31.6228 µM | -0.752
100 µM | 0.0324

O=C(c1ccccc1)C1CCCCC1 [Cyclohexylphenylketone]
Details | LDH release cytotoxicity [%]
0.03162 µM | -1.79
0.1 µM | -2.63
0.3162278 µM | -0.957
1 µM | -1.4
3.16228 µM | -1.03
10 µM | -0.851
31.6228 µM | -0.8
100 µM | 0.0978

CC1=C2CC3C(CC=C4CC(O)CCC43C)C2CCC12OC1CC(C)CNC1C2C (configuration not stated) [Cyclopamine]
Details | LDH release cytotoxicity [%]
0.015811 µM | -1.27
0.05 µM | -3.64
0.158114 µM | -4.31
0.5 µM | -4.01
1.58114 µM | -4.1
5 µM | -3.94
15.8114 µM | -2.45
50 µM | 0.363
